Results from ChEMBL document CHEMBL1149183, “Novel benzo[1,4]diazepin-2-one derivatives as endothelin receptor antagonists” (J Med Chem, 2004).

Tests used:
Endothelin-1 receptor = target: T1, Endothelin-1 receptor (Homo sapiens, UniProt P25101); assay: Antagonist activity towards human recombinant Endothelin A receptor expressed in chinese hamster ovary (CHO) cells determined using [125I]ET1 as radioligand; type: functional, cell-based
T1 sequence (P25101 whole entry): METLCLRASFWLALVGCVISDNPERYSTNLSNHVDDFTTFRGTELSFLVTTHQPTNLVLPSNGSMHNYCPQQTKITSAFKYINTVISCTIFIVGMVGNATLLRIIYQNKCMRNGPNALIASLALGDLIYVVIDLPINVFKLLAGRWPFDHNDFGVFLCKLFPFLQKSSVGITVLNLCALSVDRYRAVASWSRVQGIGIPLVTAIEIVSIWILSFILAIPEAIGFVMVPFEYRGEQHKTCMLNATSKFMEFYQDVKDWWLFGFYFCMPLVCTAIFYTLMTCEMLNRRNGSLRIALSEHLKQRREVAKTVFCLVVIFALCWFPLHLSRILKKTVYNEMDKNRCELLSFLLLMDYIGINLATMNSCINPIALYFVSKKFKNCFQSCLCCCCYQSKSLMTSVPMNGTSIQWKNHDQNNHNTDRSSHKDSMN

[1] = target: T2, Endothelin receptor type B (Homo sapiens, UniProt P24530); assay: Antagonist activity towards human recombinant Endothelin B receptor expressed in chinese hamster ovary (CHO) cells determined using [125I]ET1 as radioligand; type: functional, cell-based
T2 sequence (P24530 whole entry): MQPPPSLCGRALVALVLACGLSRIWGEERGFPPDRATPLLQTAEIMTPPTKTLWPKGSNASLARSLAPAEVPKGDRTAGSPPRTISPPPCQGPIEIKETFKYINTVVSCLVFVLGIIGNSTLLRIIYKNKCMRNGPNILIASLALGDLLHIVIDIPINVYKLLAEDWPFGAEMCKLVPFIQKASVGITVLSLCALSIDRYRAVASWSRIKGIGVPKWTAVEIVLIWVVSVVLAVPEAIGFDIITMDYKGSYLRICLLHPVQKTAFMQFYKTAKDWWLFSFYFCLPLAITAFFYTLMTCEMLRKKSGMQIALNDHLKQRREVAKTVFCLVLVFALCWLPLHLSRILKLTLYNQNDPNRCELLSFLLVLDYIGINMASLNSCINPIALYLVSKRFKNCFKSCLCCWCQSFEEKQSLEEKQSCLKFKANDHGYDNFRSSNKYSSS

Structure (SMILES) | IC50 (Endothelin-1 receptor) [nM] | IC50 [1] [nM]
COc1cccc(O[C@H](C(=O)O)[C@@]2(c3ccccc3)NCC(=O)N(Cc3c(Cl)cccc3Cl)c3ccccc32)c1 (racemic) | 129 | 1470
Cc1cc(C)nc(O[C@H](C(=O)O)[C@@]2(c3ccccc3)NCC(=O)N(Cc3ccc(C(C)(C)C)cc3)c3ccccc32)n1 (racemic) | 17.1 | 24.1
Cc1cc(C)nc(O[C@H](C(=O)O)[C@@]2(c3ccccc3)NCC(=O)N(Cc3ccccc3C(F)(F)F)c3ccccc32)n1 (racemic) | 104 | 22.5
Cc1cc(C)cc(O[C@H](C(=O)O)[C@@]2(c3ccccc3)NCC(=O)N(Cc3c(Cl)cccc3Cl)c3ccccc32)c1 (racemic) | 20.5 | 109
COc1ccc(CN2C(=O)CN[C@](c3cccc(Cl)c3)([C@H](Oc3nc(C)cc(C)n3)C(=O)O)c3ccccc32)cc1 (racemic) | 25 | 78.2
Cc1cc(C)nc(O[C@H](C(=O)O)[C@@]2(c3ccccc3)NCC(=O)N(CC3CCCCC3)c3ccccc32)n1 (racemic) | 83.4 | 82
Cc1cc(C)nc(O[C@H](C(=O)O)[C@@]2(c3ccccc3)NCC(=O)N(Cc3ccc(Br)cc3)c3ccccc32)n1 (racemic) | 25.8 | 119
Cc1cc(C)nc(O[C@H](C(=O)O)[C@@]2(c3ccccc3)NCC(=O)N(Cc3ccc(F)c(F)c3)c3ccccc32)n1 (racemic) | 6.5 | 32.8
Cc1cc(C)nc(O[C@H](C(=O)O)[C@@]2(c3ccccc3)NCCCc3ccccc32)n1 (racemic) | 91.7 | 7840
COc1ccc(CN2C(=O)CN[C@](C3CCCCC3)([C@H](Oc3nc(C)cc(C)n3)C(=O)O)c3ccccc32)cc1 (racemic) | 112 | 105
CC(C)c1ccc(O[C@H](C(=O)O)[C@@]2(c3ccccc3)NCC(=O)N(Cc3c(Cl)cccc3Cl)c3ccccc32)cc1 (racemic) | > 10000 | 8620
Cc1cc(C)nc(O[C@H](C(=O)O)[C@@]2(c3ccccc3)NCC(=O)N(Cc3ccc(C(F)(F)F)cc3)c3ccccc32)n1 (racemic) | 17 | 47.1
Cc1cc(C)nc(O[C@H](C(=O)O)[C@@]2(c3ccccc3)NCC(=O)N(Cc3cccc(C(F)(F)F)c3)c3ccccc32)n1 (racemic) | 9.1 | 15.6
COc1ccc(CN2C(=O)CN[C@](c3ccc(C)cc3)([C@H](Oc3nc(C)cc(C)n3)C(=O)O)c3ccccc32)cc1 | 221 | 181
Cc1cc(C)nc(O[C@H](C(=O)O)[C@@]2(c3ccccc3)NCC(=O)N(Cc3ccc(Cl)cc3)c3ccccc32)n1 (racemic) | 17.3 | 122
COc1ccc(CN2C(=O)CN[C@](c3cccc(F)c3)([C@H](Oc3nc(C)cc(C)n3)C(=O)O)c3ccccc32)cc1 (racemic) | 9.1 | 49.3
Cc1cc(C)nc(O[C@H](C(=O)O)[C@@]2(c3ccccc3)NCC(=O)N(Cc3cc(F)ccc3F)c3ccccc32)n1 (racemic) | 6.7 | 32.9

Structure (SMILES) | IC50 (Endothelin-1 receptor) [nM] | IC50 [1] [nM]
Cc1cc(C)nc(O[C@H](C(=O)O)[C@@]2(c3ccccc3)NCC(=O)N(CCC3CCCCC3)c3ccccc32)n1 (racemic) | 146 | 153
Cc1cc(C)nc(O[C@H](C(=O)O)[C@@]2(c3ccccc3)NCC(=O)N(Cc3cc(F)c(F)cc3F)c3ccccc32)n1 (racemic) | 7.2 | 72.7
Cc1cc(C)nc(O[C@H](C(=O)O)[C@@]2(c3ccccc3)NCCOc3ccccc32)n1 (racemic) | 69.8 | 3640
Cc1cc(C)nc(O[C@H](C(=O)O)[C@@]2(c3ccccc3)NCC(=O)N(Cc3ccc(C(=O)O)cc3)c3ccccc32)n1 (racemic) | 123 | 3530
O=C(O)[C@@H](Oc1ccccc1)[C@@]1(c2ccccc2)NCC(=O)N(Cc2c(Cl)cccc2Cl)c2ccccc21 (racemic) | 211 | 3700
Cc1cccc(O[C@H](C(=O)O)[C@@]2(c3ccccc3)NCC(=O)N(Cc3c(Cl)cccc3Cl)c3ccccc32)c1C (racemic) | > 10000 | > 1000
COc1cc(OC)cc(O[C@H](C(=O)O)[C@@]2(c3ccccc3)NCC(=O)N(Cc3c(Cl)cccc3Cl)c3ccccc32)c1 (racemic) | 46.2 | 392
COc1ccc(CN2C(=O)CN[C@](c3ccccc3F)([C@H](Oc3nc(C)cc(C)n3)C(=O)O)c3ccccc32)cc1 (racemic) |  | 80.2
COc1cc(OC)cc(O[C@H](C(=O)O)[C@@]2(c3ccccc3)NCC(=O)N(C)c3ccc(Cl)cc32)c1 (racemic) | 262 | 1810
COc1ccc(CN2C(=O)CN[C@](c3cccc(OC)c3)([C@H](Oc3nc(C)cc(C)n3)C(=O)O)c3ccccc32)cc1 (racemic) | 10.2 | 94.3
COc1ccc(CN2C(=O)CN[C@](c3cc(C)cc(C)c3)([C@H](Oc3nc(C)cc(C)n3)C(=O)O)c3ccccc32)cc1 (racemic) | 278 | 761
Cc1ccc(O[C@H](C(=O)O)[C@@]2(c3ccccc3)NCC(=O)N(Cc3c(Cl)cccc3Cl)c3ccccc32)cc1 (racemic) | 156 | 966
COc1cc(OC)cc(O[C@H](C(=O)O)[C@@]2(c3ccccc3)NCC(=O)N(C)c3cc(Cl)ccc32)c1 (racemic) | 3840 | 5600
COc1cc(OC)cc(O[C@H](C(=O)O)[C@@]2(c3ccccc3)NCC(=O)N(C)c3cc(OC)ccc32)c1 (racemic) | 3950 | 7780
Cc1cc(C)nc(O[C@H](C(=O)O)[C@@]2(c3ccccc3)NCC(=O)N(Cc3cccc(OC(F)(F)F)c3)c3ccccc32)n1 (racemic) | 11 | 30.8
Cc1cc(C)nc(O[C@H](C(=O)O)[C@@]2(c3ccccc3)NCc3nnc(C)n3-c3ccccc32)n1 (racemic) |  | 250

Results, then the compound that gave them:

IC50 (Endothelin-1 receptor) [nM] | IC50 [1] [nM] | Structure (SMILES)
387 | 1780 | Cc1cc(C)nc(O[C@H](C(=O)O)[C@@]2(c3ccccc3)NCC(=O)N(CCN(C)C)c3ccccc32)n1 (racemic)
5 | 16.7 | Cc1cccc(CN2C(=O)CN[C@](c3ccccc3)([C@H](Oc3nc(C)cc(C)n3)C(=O)O)c3ccccc32)c1 (racemic)
7.9 | 13.1 | Cc1cc(C)nc(O[C@H](C(=O)O)[C@@]2(c3ccccc3)NCC(=O)N(Cc3cc(F)cc(F)c3)c3ccccc32)n1 (racemic)
13 | 558 | Cc1cc(C)nc(O[C@H](C(=O)O)[C@@]2(c3ccccc3)NCC(=O)N(CC(=O)O)c3ccccc32)n1 (racemic)
20.5 | 654 | CCc1cc(CC)nc(O[C@H](C(=O)O)[C@@]2(c3ccccc3)NCC(=O)N(C)c3ccccc32)n1 (racemic)
384 | 9250 | COc1cnc(O[C@H](C(=O)O)[C@@]2(c3ccccc3)NCC(=O)N(C)c3ccccc32)nc1 (racemic)
7.5 | 47.8 | COCCOCN1C(=O)CN[C@](c2ccccc2)([C@H](Oc2nc(C)cc(C)n2)C(=O)O)c2ccccc21 (racemic)
8.9 | 55 | Cc1cc(C)nc(O[C@H](C(=O)O)[C@@]2(c3ccccc3)NCC(=O)N(Cc3ccccc3C)c3ccccc32)n1 (racemic)
6.4 | 25.5 | Cc1cc(C)nc(O[C@H](C(=O)O)[C@@]2(c3ccccc3)NCC(=O)N(Cc3cccc(Br)c3)c3ccccc32)n1 (racemic)
6600 | > 10000 | CSc1cnc(O[C@H](C(=O)O)[C@@]2(c3ccccc3)NCC(=O)N(C)c3ccccc32)nc1 (racemic)
5.8 | 21.4 | Cc1cc(C)nc(O[C@H](C(=O)O)[C@@]2(c3ccccc3)NCC(=O)N(Cc3cccc(Cl)c3)c3ccccc32)n1 (racemic)
17.1 | 18.3 | Cc1cc(C)nc(O[C@H](C(=O)O)[C@@]2(c3ccccc3)NCC(=O)N(CCCc3ccccc3)c3ccccc32)n1 (racemic)
45.9 | 253 | Cc1cc(C)nc(O[C@H](C(=O)O)[C@@]2(c3ccccc3)NCC(=O)N(CCCC(=O)O)c3ccccc32)n1 (racemic)
30.5 | 68.8 | Cc1ccc(CN2C(=O)CN[C@](c3ccccc3)([C@H](Oc3nc(C)cc(C)n3)C(=O)O)c3ccccc32)cc1 (racemic)
10.2 | 48.1 | Cc1cc(C)nc(O[C@H](C(=O)O)[C@@]2(c3ccccc3)NCC(=O)N(Cc3ccccc3Cl)c3ccccc32)n1 (racemic)
927 | 9480 | CN1C(=O)CN[C@](c2ccccc2)([C@H](Oc2ncc(Br)cn2)C(=O)O)c2ccccc21 (racemic)
 | 6270 | COc1cc(OC)cc(O[C@H](C(=O)O)[C@@]2(c3ccccc3)NCC(=O)N(C)c3ccccc32)c1 (racemic)
 | > 10000 | CN1C(=O)CN[C@](c2ccccc2)([C@H](Oc2ncccn2)C(=O)O)c2ccccc21 (racemic)
